Data as given in US20260248783A1 (ASCLETIS BIOSCIENCE CO., LTD., priority 2021, published 2026).
pIC50: −log10 of the molar value.

Each molecule was assayed against T1, PD-1/PD-L1 (Homo sapiens, UniProt Q9NZQ7) (assay: PD-1/PD-L1 Homogeneous Time-Resolved Fluorescence (HTRF) Binding Assay). Details: PD-1/PD-L1 HTRF activity; 3 nM PD1, 10 nM PD-L1, 25° C.
T1 construct: Recombinant human PD-L1 protein (19-238) with a Histag at the C-terminus; purchased AcroBiosystems PD1-H5229 (PD-L1); PD1-H5257 (PD-1)
T1 sequence (Q9NZQ7 19-238): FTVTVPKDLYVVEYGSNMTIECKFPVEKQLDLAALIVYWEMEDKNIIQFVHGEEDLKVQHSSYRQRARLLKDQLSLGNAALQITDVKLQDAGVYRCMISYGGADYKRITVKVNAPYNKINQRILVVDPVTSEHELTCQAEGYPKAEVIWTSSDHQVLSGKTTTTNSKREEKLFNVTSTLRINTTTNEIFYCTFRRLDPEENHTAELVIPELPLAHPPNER
Experimental: Example 107. PD-1/PD-L1 Homogeneous Time-Resolved Fluorescence (HTRF) Binding Assay
The assays were conducted in a standard black 384-well polystyrene plate with a final volume of 20 μL. Inhibitors were first serially diluted in DMSO and then added to the plate wells before the addition of other reaction components. The final concentration of DMSO in the assay was 1%. The assays were carried out at 25° C. in the PBS buffer (pH 7.4) with 0.05% Tween-20 and 0.1% BSA. Recombinant human PD-L1 protein (19-238) with a Histag at the C-terminus was purchased from AcroBiosystems (PD1-H5229). Recombinant human PD-1 protein (25-167) with Fe tag at the C-terminus was also purchased from AcroBiosystems (PD1-H5257). PD-L1 and PD-1 proteins were diluted in the assay buffer and 10 μL was added to the plate well. Plates were centrifuged and proteins were preincubated with inhibitors for 40 minutes. The incubation was followed by the addition of 10 μL of HTRF detection buffer supplemented with Europium cryptate-labeled anti-human IgG (PerkinElmer-AD0212) specific for Fe and anti-His antibody conjugated to SureLight®—Allophycocyanin (APC, PerkinElmer-AD0059H). After centrifugation, the plate was incubated at 25° C. for 60 min. before reading on a PHERAstar FS plate reader (665 nm/620 nm ratio). Final concentrations in the assay were […], 10 nM PD-L1, 1 nM europium anti-human IgG and 20 nM anti-His-Allophycocyanin. IC50 determination was performed by fitting the curve of percent control activity versus the log of the inhibitor concentration.

How did the pIC50 turn out when `Cc1cn2nc(-c3cccc(-c4cccc(-c5cc6c(=O)n(CCN[C@@H](CN)C(=O)O)c(C)cn6n5)c4Cl)c3Cl)cc2c(=O)n1CCNC(CN)C(=O)O` (stereo in doubt) [Compound 67, (2S,2'S)-2,2′-((((2,2′-dichloro-[1,1′-biphenyl]-3,3′-diyl)bis(6-methyl-4-oxopyrazolo[1,5-a]pyrazine-2,5(4H)-diyl))bis(ethane-2,1-diyl))bis(azanediyl))bis(3-aminopropanoic acid)] was run?
Its pIC50 is no more than 7.00.

How did the pIC50 turn out when `O=C1CC[C@@H](Cn2cnc3sc(-c4cccc(-c5cccc(-c6cc7c(=O)n(C[C@@H]8CCC(=O)N8)cnc7s6)c5Cl)c4Cl)cc3c2=O)N1` [Compound 2, 6,6′-(2,2′-dichloro-[1,1′-biphenyl]-3,3′-diyl)bis(3-(((S)-5-oxopyrrolidin-2-yl)methyl)thieno[2,3-d]pyrimidin-4(3H)-one)] was run?
The pIC50 was 7.00 to 8.00.

How did the pIC50 turn out when `O=C1CCC(Cn2cnn3c(F)c(-c4cccc(-c5cccc(-c6cc7c(=O)n(CC8CCC(=O)N8)cnn7c6F)c5Cl)c4Cl)cc3c2=O)N1` (centres unmarked) [Compound 3, 6,6′-(2,2′-dichloro-[1,1′-biphenyl]-3,3′-diyl)bis(7-fluoro-3-((5-oxopyrrolidin-2-yl)methyl)pyrrolo[2,1-f][1,2,4]triazin-4(3H)-one)] was run?
The pIC50 was greater than 8.00.

How did the pIC50 turn out when `Cn1c(-c2cccc(-c3cccc(-c4cc5ncn(C[C@@H]6CCC(=O)N6)c(=O)c5n4C)c3Cl)c2Cl)cc2ncn(C[C@@H]3CCC(=O)N3)c(=O)c21` [Compound 4, 6,6′-(2,2′-dichloro-[1,1′-biphenyl]-3,3′-diyl)bis(5-methyl-3-(((S)-5-oxopyrrolidin-2-yl)methyl)-3,5-dihydro-4H-pyrrolo[3,2-d]pyrimidin-4-one)] was run?
The pIC50 was no more than 7.00.

How did the pIC50 turn out when `O=C1CC[C@@H](Cn2ccn3cc(-c4cccc(-c5cccc(-c6cc7c(=O)n(C[C@@H]8CCC(=O)N8)ccn7c6)c5Cl)c4Cl)cc3c2=O)N1` [Compound 5, 7,7′-(2,2′-dichloro-[1,1′-biphenyl]-3,3′-diyl)bis(2-(((S)-5-oxopyrrolidin-2-yl)methyl)pyrrolo[1,2-a]pyrazin-1(2H)-one)] was run?
Its pIC50 is 7.00 to 8.00.

`Cn1c(-c2cccc(-c3cccc(-c4nc5c(=O)n(C[C@@H]6CCC(=O)N6)ccc5n4C)c3Cl)c2Cl)nc2c(=O)n(C[C@@H]3CCC(=O)N3)ccc21` [Compound 6, 2,2′-(2,2′-dichloro-[1,1′-biphenyl]-3,3′-diyl)bis(1-methyl-5-(((S)-5-oxopyrrolidin-2-yl)methyl)-1,5-dihydro-4H-imidazo[4,5-c]pyridin-4-one)] was tested. Which pIC50 did it give?
The pIC50 was no more than 7.00.

How did the pIC50 turn out when `O=C1CC[C@@H](Cn2ccn3nc(-c4cccc(-c5cccc(-c6cc7c(=O)n(C[C@@H]8CCC(=O)N8)ccn7n6)c5Cl)c4Cl)cc3c2=O)N1` [Compound 7, 2,2′-(2,2′-dichloro-[1,1′-biphenyl]-3,3′-diyl)bis(5-(((S)-5-oxopyrrolidin-2-yl)methyl)pyrazolo[1,5-a]pyrazin-4(5H)-one)] was run?
The pIC50 was greater than 8.00.

With `O=C1CC[C@@H](Cn2ccc3sc(-c4cccc(-c5cccc(-c6cc7c(=O)n(C[C@@H]8CCC(=O)N8)ccc7s6)c5Cl)c4Cl)cc3c2=O)N1` [Compound 8, 2,2′-(2,2′-dichloro-[1,1′-biphenyl]-3,3′-diyl)bis(5-(((S)-5-oxopyrrolidin-2-yl)methyl)thieno[3,2-c]pyridin-4(5H)-one)] as the molecule, how does the pIC50 read?
Its pIC50 is 7.00 to 8.00.

With `O=C1CC[C@@H](CN2CCn3cc(-c4cccc(-c5cccc(-c6cc7n(c6)CCN(C[C@@H]6CCC(=O)N6)C7=O)c5Cl)c4Cl)cc3C2=O)N1` [Compound 9, 7,7′-(2,2′-dichloro-[1,1′-biphenyl]-3,3′-diyl)bis(2-(((S)-5-oxopyrrolidin-2-yl)methyl)-3,4-dihydropyrrolo[1,2-a]pyrazin-1(2H)-one)] as the molecule, how does the pIC50 read?
Its pIC50 is no more than 7.00.

With `Cn1c(-c2cccc(-c3cccc(-c4nc5c(c(=O)n(C[C@@H]6CCC(=O)N6)c(=O)n5C)n4C)c3Cl)c2Cl)nc2c1c(=O)n(C[C@@H]1CCC(=O)N1)c(=O)n2C` [Compound 10, 8,8′-(2,2′-dichloro-[1,1′-biphenyl]-3,3′-diyl)bis(3,7-dimethyl-1-(((S)-5-oxopyrrolidin-2-yl)methyl)-3,7-dihydro-1H-purine-2,6-dione)] as the molecule, how does the pIC50 read?
Its pIC50 is no more than 7.00.

`O=C1CC[C@@H](Cn2ncn3cc(-c4cccc(-c5cccc(-c6cc7c(=O)n(C[C@@H]8CCC(=O)N8)ncn7c6)c5Cl)c4Cl)cc3c2=O)N1` [Compound 11, 7,7′-(2,2′-dichloro-[1,1′-biphenyl]-3,3′-diyl)bis(2-(((S)-5-oxopyrrolidin-2-yl)methyl)pyrrolo[1,2-d][1,2,4]triazin-1(2H)-one)] was tested. Which pIC50 did it give?
Its pIC50 is no more than 7.00.

How did the pIC50 turn out when `O=C1CC[C@@H](Cn2ccn3cc(-c4cccc(-c5cccc(-c6cn7ccn(C[C@@H]8CCC(=O)N8)c(=O)c7n6)c5Cl)c4Cl)nc3c2=O)N1` [Compound 12, 2,2′-(2,2′-dichloro-[1,1′-biphenyl]-3,3′-diyl)bis(7-(((S)-5-oxopyrrolidin-2-yl)methyl)imidazo[1,2-a]pyrazin-8(7H)-one)] was run?
The pIC50 was 7.00 to 8.00.

`O=C1CC[C@@H](Cn2ccn3c(F)c(-c4cccc(-c5cccc(-c6nc7c(=O)n(C[C@@H]8CCC(=O)N8)ccn7c6F)c5Cl)c4Cl)nc3c2=O)N1` [Compound 13, 2,2′-(2,2′-dichloro-[1,1′-biphenyl]-3,3′-diyl)bis(3-fluoro-7-(((S)-5-oxopyrrolidin-2-yl)methyl)imidazo[1,2-a]pyrazin-8(7H)-one)] was tested. Which pIC50 did it give?
The pIC50 was no more than 7.00.

With `O=C1CC[C@@H](Cn2cnc3[nH]c(-c4cccc(-c5cccc(-c6cc7c(=O)n(C[C@@H]8CCC(=O)N8)cnc7[nH]6)c5Cl)c4Cl)cc3c2=O)N1` [Compound 14, 6,6′-(2,2′-dichloro-[1,1′-biphenyl]-3,3′-diyl)bis(3-(((S)-5-oxopyrrolidin-2-yl)methyl)-3,7-dihydro-4H-pyrrolo[2,3-d]pyrimidin-4-one)] as the molecule, how does the pIC50 read?
The pIC50 was 7.00 to 8.00.

How did the pIC50 turn out when `O=C1CC[C@@H](Cn2ccn3nc(-c4cccc(-c5cccc(-c6nc7c(=O)n(C[C@@H]8CCC(=O)N8)ccn7n6)c5Cl)c4Cl)nc3c2=O)N1` [Compound 15, 2,2′-(2,2′-dichloro-[1,1′-biphenyl]-3,3′-diyl)bis(7-(((S)-5-oxopyrrolidin-2-yl)methyl)-[1,24]triazolo[1,5-a]pyrazin-8(7H)-one)] was run?
Its pIC50 is greater than 8.00.

With `O=C1CCC(Cn2cc(F)n3cc(-c4cccc(-c5cccc(-c6cc7c(=O)n(CC8CCC(=O)N8)cc(F)n7c6)c5Cl)c4Cl)cc3c2=O)N1` (centres unmarked) [Compound 16, 7,7′-(2,2′-dichloro-[1,1′-biphenyl]-3,3′-diyl)bis(4-fluoro-2-((5-oxopyrrolidin-2-yl)methyl)pyrrolo[1,2-a]pyrazin-1(2H)-one)] as the molecule, how does the pIC50 read?
The pIC50 was 7.00 to 8.00.

How did the pIC50 turn out when `Cc1c(-c2cc3c(=O)n(C[C@@H]4CCC(=O)N4)cnn3c2)cccc1-c1cccc(-c2cc3c(=O)n(C[C@@H]4CCC(=O)N4)cnn3c2)c1C` [Compound 17, 6,6′-(2,2′-dimethyl-[1,1′-biphenyl]-3,3′-diyl)bis(3-(((S)-5-oxopyrrolidin-2-yl)methyl)pyrrolo[2,1-f][1,2,4]triazin-4(3H)-one)] was run?
The pIC50 was greater than 8.00.

`O=C1CC(Cn2cnn3cc(-c4cccc(-c5cccc(-c6cc7c(=O)n(CC8CNC(=O)C8)cnn7c6)c5Cl)c4Cl)cc3c2=O)CN1` (centres unmarked) [Compound 18, 6,6′-(2,2′-dichloro-[1,1′-biphenyl]-3,3′-diyl)bis(3-((5-oxopyrrolidin-3-yl)methyl)pyrrolo[2,1-f][1,2,4]triazin-4(3H)-one)] was tested. Which pIC50 did it give?
The pIC50 was 7.00 to 8.00.

`O=C1NCCN1CCn1cnn2cc(-c3cccc(-c4cccc(-c5cc6c(=O)n(CCN7CCNC7=O)cnn6c5)c4Cl)c3Cl)cc2c1=O` [Compound 19, 6,6′-(2,2′-dichloro-[1,1′-biphenyl]-3,3′-diyl)bis(3-(2-(2-oxoimidazolidin-1-yl)ethyl)pyrrolo[2,1-f][1,2,4]triazin-4(3H)-one)] was tested. Which pIC50 did it give?
The pIC50 was no more than 7.00.

With `O=c1c2cc(-c3cccc(-c4cccc(-c5cc6c(=O)n(CCO)cnn6c5)c4Cl)c3Cl)cn2ncn1CCO` [Compound 20, 6,6′-(2,2′-dichloro-[1,1′-biphenyl]-3,3′-diyl)bis(3-(2-hydroxyethyl)pyrrolo[2,1-f][1,2,4]triazin-4(3H)-one)] as the molecule, how does the pIC50 read?
Its pIC50 is no more than 7.00.

With `O=c1c2cc(-c3cccc(-c4cccc(-c5cc6c(=O)n(CCn7cccn7)cnn6c5)c4Cl)c3Cl)cn2ncn1CCn1cccn1` [Compound 21, 6,6′-(2,2′-dichloro-[1,1′-biphenyl]-3,3′-diyl)bis(3-(2-(1H-pyrazol-1-yl)ethyl)pyrrolo[2,1-f][1,2,4]triazin-4(3H)-one)] as the molecule, how does the pIC50 read?
The pIC50 was no more than 7.00.

`O=c1c2cc(-c3cccc(-c4cccc(-c5cc6c(=O)n(CCn7cncn7)cnn6c5)c4Cl)c3Cl)cn2ncn1CCn1cncn1` [Compound 22, 6,6′-(2,2′-dichloro-[1,1′-biphenyl]-3,3′-diyl)bis(3-(2-(1H-1,2,4-triazol-1-yl)ethyl)pyrrolo[2,1-f][1,2,4]triazin-4(3H)-one)] was tested. Which pIC50 did it give?
Its pIC50 is 7.00 to 8.00.

With `O=C(O)Cn1cnn2cc(-c3cccc(-c4cccc(-c5cc6c(=O)n(CC(=O)O)cnn6c5)c4Cl)c3Cl)cc2c1=O` [Compound 23, 2,2′-((2,2′-dichloro-[1,1′-biphenyl]-3,3′-diyl)bis(4-oxopyrrolo[2,1-f][1,2,4]triazine-6,3(4H)-diyl))diacetic acid] as the molecule, how does the pIC50 read?
The pIC50 was no more than 7.00.
